The text below walks through data of ChEMBL document CHEMBL1140032, “Furoxan-, alkylnitrate-derivatives and related compounds as anti-trypanosomatid agents: mechanism of action studies” (2008).

In this test the test system is Trypanosoma cruzi. Put plainly: Antitrypanosomal activity against Trypanosoma cruzi Tulahuen 2 assessed as inhibition of growth of epimastigotes at 25 uM after 5 days by MTT assay relative to control. The test is classed as functional. The conditions noted are these: Tulahuen 2, 120 h, read-out: GI.
Regarding `CCNCCCO[N+](=O)[O-]`, the inhibition of growth at 25 µM is 0%.

For the compound `Cc1no[n+]([O-])c1/C=N/O`, the inhibition of growth at 25 µM stood at 17%.

Turning to `Cc1ncc([N+](=O)[O-])n1CCOCC[N+](=O)[O-]`, the inhibition of growth at 25 µM is 13%.

In the case of `Cc1c(-c2ccc(C(=O)O)cc2)no[n+]1[O-]`, the inhibition of growth at 25 µM worked out at 34%.

For `Cc1nonc1-c1ccc(C(=O)O)cc1`, the inhibition of growth at 25 µM was 32%.

For `Cc1c(CNC(c2c[nH]cn2)C2CCNCC2)no[n+]1[O-]` (stereo unspecified), the inhibition of growth at 25 µM came out at 0%.

Take `CN(C)Cc1nonc1C(N)=O`: the inhibition of growth at 25 µM was 0%.

Turning to `[O-][n+]1onc(SC2CCNCC2)c1-c1ccccc1`, the inhibition of growth at 25 µM is 32%.

With `Cc1nonc1CNCCn1c([N+](=O)[O-])cnc1C`, the inhibition of growth at 25 µM stood at 18%.

`CN(C)CCCOc1no[n+]([O-])c1-c1ccccc1`: the inhibition of growth at 25 µM was found to be 0%.

On to `O=C(O)CSc1c(S(=O)(=O)c2ccccc2)no[n+]1[O-]`, for which the inhibition of growth at 25 µM worked out at 0%.

In the case of `Cc1c(/C=N/O)no[n+]1[O-]`, the inhibition of growth at 25 µM was found to be 32%.

As to `Cc1ncc([N+](=O)[O-])n1CCNCc1no[n+]([O-])c1C(N)=O`, the inhibition of growth at 25 µM was found to be 10%.

Take `CS(=O)(=O)CCOc1no[n+]([O-])c1-c1ccccc1`: the inhibition of growth at 25 µM was determined as 11%.

Take `Cc1ncc([N+](=O)[O-])n1CCNCc1no[n+]([O-])c1C`: the inhibition of growth at 25 µM was found to be 17%.

On to `O=C(O)c1ccc(CC(CO[N+](=O)[O-])O[N+](=O)[O-])cc1` (stereo unspecified), for which the inhibition of growth at 25 µM worked out at 0%.

Turning to `COc1cc(CN2CCN(c3ccc(CC(CO[N+](=O)[O-])O[N+](=O)[O-])cc3)CC2)cc(OC)c1OC` (stereo unspecified), the inhibition of growth at 25 µM was 3%.

For the compound `O=S(=O)(CCO)c1nonc1-c1ccccc1`, the inhibition of growth at 25 µM was determined as 17%.

For `N#Cc1nonc1CN1CCC(Cc2c[nH]cn2)CC1`, the inhibition of growth at 25 µM is 0%.

As for `Cc1nonc1CNC(c1c[nH]cn1)C1CCNCC1` (stereo unspecified), the inhibition of growth at 25 µM was determined as 2%.

For `O=Cc1ccc(CC(CO[N+](=O)[O-])O[N+](=O)[O-])cc1` (stereo unspecified), the inhibition of growth at 25 µM came out at 0%.

Regarding `CCOc1nonc1S(=O)(=O)c1ccccc1`, the inhibition of growth at 25 µM is 25%.

With `Cc1c(C(=O)NNC(N)=S)no[n+]1[O-]`, the inhibition of growth at 25 µM worked out at 9%.

Regarding `CN(C)CCCOc1nonc1-c1c[nH]cn1`, the inhibition of growth at 25 µM worked out at 3%.

As to `COC(=O)CSc1no[n+]([O-])c1-c1ccccc1`, the inhibition of growth at 25 µM was found to be 15%.

For `N#Cc1no[n+]([O-])c1-c1ccccc1`, the inhibition of growth at 25 µM stood at 15%.

For `c1ccc(-c2nonc2SC2CCNCC2)cc1`, the inhibition of growth at 25 µM turned out to be 34%.

`O=C(O)CSc1no[n+]([O-])c1-c1ccccc1`: the inhibition of growth at 25 µM is 4%.

Take `Cc1nonc1C(=O)NNC(N)=S`: the inhibition of growth at 25 µM was 16%.

For the compound `CN(C)CCCOc1nonc1S(=O)(=O)c1ccccc1`, the inhibition of growth at 25 µM was 15%.

Take `NC(=O)c1c(CNC(c2c[nH]cn2)C2CCNCC2)no[n+]1[O-]` (stereo unspecified): the inhibition of growth at 25 µM was 17%.

`Cc1c(CN(C)C)no[n+]1[O-]`: the inhibition of growth at 25 µM was 0%.

As for `COC(=O)CSc1c(S(=O)(=O)c2ccccc2)no[n+]1[O-]`, the inhibition of growth at 25 µM came out at 22%.

As to `CCOCC.NC(=O)c1nonc1CNC(c1c[nH]cn1)C1CCNCC1` (stereo unspecified), the inhibition of growth at 25 µM worked out at 0%.

With `O=S(=O)(c1ccccc1)c1nonc1-c1c[nH]cn1`, the inhibition of growth at 25 µM stood at 12%.

Take `Cc1nonc1-c1nc(S)n[nH]1`: the inhibition of growth at 25 µM is 32%.

For `Cc1no[n+]([O-])c1-c1ccc(C(=O)O)cc1`, the inhibition of growth at 25 µM amounted to 38%.

As for `Cc1ncc([N+](=O)[O-])n1CCNCc1nonc1C#N`, the inhibition of growth at 25 µM came out at 23%.

In the case of `CN(C)Cc1no[n+]([O-])c1C#N`, the inhibition of growth at 25 µM is 5%.

For the compound `Cc1ncc([N+](=O)[O-])n1CCNCc1nonc1C(N)=O`, the inhibition of growth at 25 µM was 14%.

Take `[O-][n+]1onc(-c2ccccc2)c1SC1CCNCC1`: the inhibition of growth at 25 µM turned out to be 35%.

Take `NC(=O)c1nonc1CN1CCC(Cc2c[nH]cn2)CC1`: the inhibition of growth at 25 µM is 0%.

For the compound `NC(=O)c1c(-c2ccccc2)no[n+]1[O-]`, the inhibition of growth at 25 µM came out at 35%.

For the compound `N#Cc1c(CNC(c2c[nH]cn2)C2CCNCC2)no[n+]1[O-]` (stereo unspecified), the inhibition of growth at 25 µM turned out to be 7%.

On to `N#Cc1c(CN2CCC(Cc3c[nH]cn3)CC2)no[n+]1[O-]`, for which the inhibition of growth at 25 µM worked out at 9%.

Take `NC(=O)c1nonc1CN1CCCCC1`: the inhibition of growth at 25 µM was 3%.

Turning to `Cc1nonc1CN1CCC(Cc2c[nH]cn2)CC1`, the inhibition of growth at 25 µM was determined as 21%.

For `[O-][n+]1onc(/C=N/O)c1CO`, the inhibition of growth at 25 µM was determined as 3%.

`N#Cc1nonc1-c1ccccc1`: the inhibition of growth at 25 µM was found to be 2%.

Consider `CN(C)Cc1nonc1C#N`, for which the inhibition of growth at 25 µM is 13%.

For the compound `Cc1c(CN2CCC(Cc3c[nH]cn3)CC2)no[n+]1[O-]`, the inhibition of growth at 25 µM was 4%.

For `CN(C)Cc1no[n+]([O-])c1C(N)=O`, the inhibition of growth at 25 µM was found to be 11%.

For `O=C(O)c1ccc(OCC(CO[N+](=O)[O-])O[N+](=O)[O-])cc1` (stereo unspecified), the inhibition of growth at 25 µM was found to be 0%.

For the compound `O=C(O)COc1no[n+]([O-])c1S(=O)(=O)c1ccccc1`, the inhibition of growth at 25 µM stood at 35%.

Regarding `NC(=O)c1c(CN2CCCCC2)no[n+]1[O-]`, the inhibition of growth at 25 µM is 4%.

On to `Cc1nonc1-c1nc2ccccc2[nH]1`, for which the inhibition of growth at 25 µM stood at 20%.

Regarding `Nc1nonc1-c1ccccc1`, the inhibition of growth at 25 µM worked out at 45%.

Regarding `CN(C)CCCOc1nonc1-c1ccccc1`, the inhibition of growth at 25 µM is 0%.

As to `NC(=O)c1c(CO)no[n+]1[O-]`, the inhibition of growth at 25 µM is 0%.

Regarding `NC(=O)c1nonc1CO`, the inhibition of growth at 25 µM was determined as 0%.

Regarding `NC(=O)c1c(CN2CCC(Cc3c[nH]cn3)CC2)no[n+]1[O-]`, the inhibition of growth at 25 µM was determined as 6%.

Turning to `NC(=O)c1no[n+]([O-])c1-c1ccccc1`, the inhibition of growth at 25 µM was 10%.

`Nc1c(-c2ccccc2)no[n+]1[O-]`: the inhibition of growth at 25 µM is 39%.

`Cc1nonc1-c1nc2ccccc2o1`: the inhibition of growth at 25 µM was found to be 15%.

On to `CCOc1nonc1-c1ccccc1`, for which the inhibition of growth at 25 µM is 35%.

`[O-][n+]1onc(CO)c1/C=N/O`: the inhibition of growth at 25 µM came out at 2%.

Consider `Cc1ncc([N+](=O)[O-])n1CCNCc1no[n+]([O-])c1C#N`, for which the inhibition of growth at 25 µM amounted to 5%.

Turning to `Nc1no[n+]([O-])c1C(=O)N1CCCCC1`, the inhibition of growth at 25 µM was 17%.

For the compound `Cc1nonc1-c1nc2ccccc2s1`, the inhibition of growth at 25 µM was 22%.

As for `CS(=O)(=O)CCOc1nonc1-c1ccccc1`, the inhibition of growth at 25 µM worked out at 4%.

`Cc1nonc1CN(C)C`: the inhibition of growth at 25 µM was 0%.

In the case of `O=C(O)CSc1nonc1-c1ccccc1`, the inhibition of growth at 25 µM is 31%.

With `Cc1no[n+]([O-])c1C(=O)NNC(N)=S`, the inhibition of growth at 25 µM amounted to 10%.

`Cc1c(-c2nc(S)n[nH]2)no[n+]1[O-]`: the inhibition of growth at 25 µM was found to be 29%.

On to `Cc1no[n+]([O-])c1-c1nc(S)n[nH]1`, for which the inhibition of growth at 25 µM turned out to be 40%.

Consider `O=Cc1ccc(OCC(CO[N+](=O)[O-])O[N+](=O)[O-])cc1` (stereo unspecified), for which the inhibition of growth at 25 µM stood at 1%.
